Literature values in patent EP4407007A1, “ECO-FRIENDLY INK FORMULATION, PARTICULARLY FOR BALLPOINT PENS AND ASSOCIATED BALLPOINT PEN CARTRIDGE” (Reinol S.r.l., priority 2023, dated 2024).

Assays:
[1] = hazard category
[2] = hazard category; remark: listed apart in the source
[3] = tested on: Fish; details: hazard category

| Structure (SMILES) | Acute toxicity Oral inhalation [1] | Skin irritation [2] | Aquatic toxicity Fish [3] |
| --- | --- | --- | --- |
| CC1(C)OCC(CO)O1 (racemic) [2,2-dimethyl-1,3-dioxolane-4-yl-methanol] | Unclassified | Unclassified | Unclassified |
| OCc1ccccc1 [benzyl alcohol] | Category 4 | Category 2 | Category 2 |
